Source: PubChem BioAssay (NCI)
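96-well plates; 48 h exposure; 5 concentrations. Endpoints by linear interpolation between flanking doses. Not reached: highest tested concentration assigned. GI50: concentration for 50% inhibition of growth. TGI marks complete inhibition of growth.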

Experiments:
Experiment in all cases: NCI-60 cell line screen, 48 h
ACHN renal = test system: ACHN renal
RPMI-8226 leukemia = test system: RPMI-8226 leukemia
NCI-H23 lung = test system: NCI-H23 lung
TK-10 renal = test system: TK-10 renal
OVCAR-5 ovarian = test system: OVCAR-5 ovarian
HOP-62 NSCLC = test system: HOP-62 NSCLC
HT29 colon = test system: HT29 colon
NCI-H460 lung = test system: NCI-H460 lung
HCC-2998 colon = test system: HCC-2998 colon
COLO 205 colon = test system: COLO 205 colon

Nc1ncnc2occ(-c3ccc(NC(=O)Nc4cc(C(F)(F)F)cc(C(F)(F)F)c4)cc3)c12
GI50 (ACHN renal): 2.94 µM
TGI (ACHN renal): 12.6 µM
GI50 (RPMI-8226 leukemia): 3.68 µM
TGI (RPMI-8226 leukemia): 16.4 µM
GI50 (NCI-H23 lung): 3.12 µM
TGI (NCI-H23 lung): 6.86 µM
GI50 (TK-10 renal): 1.84 µM
TGI (TK-10 renal): 5.96 µM
GI50 (OVCAR-5 ovarian): 4.39 µM
TGI (OVCAR-5 ovarian): 8.99 µM
GI50 (HOP-62 NSCLC): 3.66 µM
TGI (HOP-62 NSCLC): 6.99 µM
GI50 (HT29 colon): 1.83 µM
TGI (HT29 colon): 5.29 µM
GI50 (NCI-H460 lung): 3.1 µM
TGI (NCI-H460 lung): 6.7 µM
GI50 (HCC-2998 colon): 4.63 µM
TGI (HCC-2998 colon): 8.27 µM
GI50 (COLO 205 colon): 4.23 µM
TGI (COLO 205 colon): 7.96 µM

CC(=O)[CH-]C(=O)c1ccccc1.CC(=O)[CH-]C(=O)c1ccccc1.[O]=[U+2]=[O]
GI50 (ACHN renal): 33.6 µM
TGI (ACHN renal): > 100 µM
GI50 (RPMI-8226 leukemia): 40.7 µM
TGI (RPMI-8226 leukemia): > 100 µM
GI50 (NCI-H23 lung): 46.9 µM
TGI (NCI-H23 lung): > 100 µM
GI50 (TK-10 renal): 37.8 µM
TGI (TK-10 renal): > 100 µM
GI50 (OVCAR-5 ovarian): > 100 µM
TGI (OVCAR-5 ovarian): > 100 µM
GI50 (HOP-62 NSCLC): 23.8 µM
TGI (HOP-62 NSCLC): 66.2 µM
GI50 (HT29 colon): 23.4 µM
TGI (HT29 colon): 57.4 µM
GI50 (NCI-H460 lung): 36.9 µM
TGI (NCI-H460 lung): > 100 µM
GI50 (HCC-2998 colon): 18.7 µM
TGI (HCC-2998 colon): 65.4 µM
GI50 (COLO 205 colon): 28.4 µM
TGI (COLO 205 colon): 78.5 µM

COc1cc2oc3ccccc3c(=O)c2cc1CSc1ccccc1N
TGI (ACHN renal): > 100 µM
TGI (RPMI-8226 leukemia): > 87.6 µM
TGI (NCI-H23 lung): > 100 µM
TGI (TK-10 renal): > 100 µM
TGI (OVCAR-5 ovarian): > 100 µM
TGI (HOP-62 NSCLC): > 93.3 µM
TGI (HT29 colon): > 100 µM
TGI (NCI-H460 lung): > 100 µM
TGI (HCC-2998 colon): 29.3 µM
TGI (COLO 205 colon): > 95.6 µM

N#CC1c2ccccc2-c2ccccc2N1C(=O)c1ccccc1 (centres undefined)
GI50 (ACHN renal): 4.05 µM
TGI (ACHN renal): > 100 µM
GI50 (RPMI-8226 leukemia): 0.903 µM
TGI (RPMI-8226 leukemia): 5.32 µM
GI50 (NCI-H23 lung): 3.09 µM
TGI (NCI-H23 lung): > 100 µM
GI50 (TK-10 renal): 1.23 µM
TGI (TK-10 renal): 28.2 µM
GI50 (OVCAR-5 ovarian): 5.37 µM
TGI (OVCAR-5 ovarian): > 100 µM
GI50 (HOP-62 NSCLC): 4.46 µM
TGI (HOP-62 NSCLC): > 100 µM
GI50 (HT29 colon): 1.1 µM
TGI (HT29 colon): > 25.3 µM
GI50 (NCI-H460 lung): 3.06 µM
TGI (NCI-H460 lung): 10.9 µM
GI50 (HCC-2998 colon): 2.72 µM
TGI (HCC-2998 colon): 22.2 µM
GI50 (COLO 205 colon): 1.56 µM
TGI (COLO 205 colon): 3.67 µM

CC1(C)N=C(N)N=C(N)N1c1ccc(OCC(=O)Nc2cccc(S(=O)(=O)F)c2)c(Cl)c1
TGI (ACHN renal): > 100 µM
TGI (RPMI-8226 leukemia): > 100 µM
TGI (NCI-H23 lung): > 45.4 µM
TGI (TK-10 renal): > 44.4 µM
TGI (OVCAR-5 ovarian): > 100 µM
TGI (HOP-62 NSCLC): > 79.7 µM
TGI (HT29 colon): > 100 µM
TGI (NCI-H460 lung): > 100 µM
TGI (HCC-2998 colon): > 100 µM
TGI (COLO 205 colon): > 100 µM

COc1ccc2c(c1O)[C@@]13C=C(O)C(=O)C=C1[C@@H](C2)N(C)CC3
TGI (ACHN renal): > 100 µM
TGI (RPMI-8226 leukemia): > 100 µM
TGI (NCI-H23 lung): > 100 µM
TGI (TK-10 renal): > 100 µM
TGI (OVCAR-5 ovarian): > 100 µM
TGI (HOP-62 NSCLC): > 100 µM
TGI (HT29 colon): > 100 µM
TGI (NCI-H460 lung): > 100 µM
TGI (HCC-2998 colon): > 100 µM
TGI (COLO 205 colon): > 100 µM

COc1ccc2nc3ccc(OC)cc3c(SCCCN)c2c1
GI50 (ACHN renal): 4.72 µM
TGI (ACHN renal): 19.5 µM
GI50 (RPMI-8226 leukemia): 1.78 µM
TGI (RPMI-8226 leukemia): 3.92 µM
GI50 (NCI-H23 lung): 5.37 µM
TGI (NCI-H23 lung): 15.4 µM
GI50 (TK-10 renal): 2.03 µM
TGI (TK-10 renal): 10.5 µM
GI50 (OVCAR-5 ovarian): 13.5 µM
TGI (OVCAR-5 ovarian): 28.3 µM
GI50 (HOP-62 NSCLC): 20.3 µM
TGI (HOP-62 NSCLC): 45.8 µM
GI50 (HT29 colon): 1.91 µM
TGI (HT29 colon): 4.07 µM
GI50 (NCI-H460 lung): 8.66 µM
TGI (NCI-H460 lung): 31.6 µM
GI50 (HCC-2998 colon): 13.2 µM
TGI (HCC-2998 colon): 30.7 µM
GI50 (COLO 205 colon): 1.42 µM
TGI (COLO 205 colon): 2.97 µM

CCOP(=O)(OCC)/C(C#N)=C\c1cccc2ccccc12
TGI (ACHN renal): > 100 µM
TGI (RPMI-8226 leukemia): > 66.5 µM
TGI (NCI-H23 lung): > 100 µM
TGI (TK-10 renal): > 100 µM
TGI (OVCAR-5 ovarian): > 100 µM
TGI (HOP-62 NSCLC): > 100 µM
TGI (HT29 colon): > 100 µM
TGI (NCI-H460 lung): > 100 µM
TGI (HCC-2998 colon): > 100 µM
TGI (COLO 205 colon): > 100 µM

COc1ccccc1C(=O)c1cnc(NC2CCN(S(C)(=O)=O)CC2)nc1N
GI50 (ACHN renal): 4.68 µM
TGI (ACHN renal): > 25 µM
GI50 (RPMI-8226 leukemia): 6.57 µM
TGI (RPMI-8226 leukemia): > 25 µM
GI50 (NCI-H23 lung): 5.71 µM
TGI (NCI-H23 lung): > 25 µM
GI50 (TK-10 renal): 5.92 µM
TGI (TK-10 renal): > 25 µM
GI50 (OVCAR-5 ovarian): 4.92 µM
TGI (OVCAR-5 ovarian): > 25 µM
GI50 (HOP-62 NSCLC): 7.73 µM
TGI (HOP-62 NSCLC): > 25 µM
GI50 (HT29 colon): 6.27 µM
TGI (HT29 colon): > 25 µM
GI50 (NCI-H460 lung): 2.85 µM
TGI (NCI-H460 lung): > 25 µM
GI50 (HCC-2998 colon): 13 µM
TGI (HCC-2998 colon): > 25 µM
GI50 (COLO 205 colon): 4.37 µM
TGI (COLO 205 colon): > 15.4 µM

CCCC/C(=N\N=C(N)N)c1ccc(F)cc1
GI50 (ACHN renal): 5.33 µM
TGI (ACHN renal): 17.5 µM
GI50 (RPMI-8226 leukemia): 2.67 µM
TGI (RPMI-8226 leukemia): 17.4 µM
GI50 (NCI-H23 lung): 3.34 µM
TGI (NCI-H23 lung): 17.1 µM
GI50 (TK-10 renal): 7.83 µM
TGI (TK-10 renal): 20.8 µM
GI50 (OVCAR-5 ovarian): 5.08 µM
TGI (OVCAR-5 ovarian): 17.8 µM
GI50 (HOP-62 NSCLC): 3.81 µM
TGI (HOP-62 NSCLC): 15.8 µM
GI50 (HT29 colon): 2.23 µM
GI50 (NCI-H460 lung): 3.9 µM
TGI (NCI-H460 lung): 14.7 µM
GI50 (HCC-2998 colon): 2.77 µM
TGI (HCC-2998 colon): 11 µM
GI50 (COLO 205 colon): 1.78 µM
TGI (COLO 205 colon): 3.41 µM

COc1ccc(S(=O)(=O)N/N=C/C(=O)O)cc1
TGI (ACHN renal): 970 µM
TGI (RPMI-8226 leukemia): 887 µM
TGI (NCI-H23 lung): 867 µM
TGI (TK-10 renal): > 1250 µM
TGI (OVCAR-5 ovarian): > 1150 µM
TGI (HOP-62 NSCLC): 1130 µM
TGI (HT29 colon): > 580 µM
TGI (NCI-H460 lung): > 1230 µM
TGI (HCC-2998 colon): > 1250 µM
TGI (COLO 205 colon): > 1250 µM

COC(=O)[C@H](Cc1ccccc1)NC(=O)c1csc([C@@H](C[C@H](C(C)C)N(C)C(=O)[C@@H](NC(=O)[C@H]2CCCCN2C)C2CC2)OC(C)=O)n1
GI50 (ACHN renal): 0.15 µM
TGI (ACHN renal): > 25 µM
GI50 (RPMI-8226 leukemia): 0.019 µM
TGI (RPMI-8226 leukemia): > 25 µM
GI50 (NCI-H23 lung): 0.146 µM
TGI (NCI-H23 lung): > 25 µM
GI50 (TK-10 renal): 0.473 µM
TGI (TK-10 renal): > 25 µM
GI50 (OVCAR-5 ovarian): 0.316 µM
TGI (OVCAR-5 ovarian): > 25 µM
GI50 (HOP-62 NSCLC): 0.0749 µM
TGI (HOP-62 NSCLC): > 25 µM
GI50 (HT29 colon): 0.0175 µM
TGI (HT29 colon): > 25 µM
GI50 (NCI-H460 lung): 0.0546 µM
TGI (NCI-H460 lung): > 25 µM
GI50 (HCC-2998 colon): 0.162 µM
TGI (HCC-2998 colon): > 25 µM
GI50 (COLO 205 colon): 0.048 µM
TGI (COLO 205 colon): 0.362 µM
